Experimental data: PubChem BioAssay (NCI)
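Test compounds were applied to cells in 96-well plates for 48 hours at 5 doses. TGI marks complete inhibition of growth.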

Key:
Experiment in all cases: NCI tumour cell line growth inhibition, 48 h
UO-31 renal = test system: UO-31 renal
CCRF-CEM leukemia = test system: CCRF-CEM leukemia
CAKI-1 renal = test system: CAKI-1 renal
NCI-H226 lung = test system: NCI-H226 lung
ACHN renal = test system: ACHN renal
HOP-92 NSCLC = test system: HOP-92 NSCLC
UACC-62 melanoma = test system: UACC-62 melanoma
A498 renal = test system: A498 renal
HCT-15 colon = test system: HCT-15 colon
SF-539 CNS = test system: SF-539 CNS
A549 NSCLC = test system: A549 NSCLC
SN12C renal = test system: SN12C renal
SNB-75 CNS = test system: SNB-75 CNS
LOX IMVI melanoma = test system: LOX IMVI melanoma
HT29 colon = test system: HT29 colon
T-47D breast = test system: T-47D breast
PC-3 prostate = test system: PC-3 prostate
HS 578T breast = test system: HS 578T breast
MDA-N = test system: MDA-N
BT-549 breast = test system: BT-549 breast

SMILES | TGI (UO-31 renal) [µM] | TGI (CCRF-CEM leukemia) [µM] | TGI (CAKI-1 renal) [µM] | TGI (NCI-H226 lung) [µM] | TGI (ACHN renal) [µM] | TGI (HOP-92 NSCLC) [µM] | TGI (UACC-62 melanoma) [µM] | TGI (A498 renal) [µM] | TGI (HCT-15 colon) [µM] | TGI (SF-539 CNS) [µM] | TGI (A549 NSCLC) [µM] | TGI (SN12C renal) [µM] | TGI (SNB-75 CNS) [µM] | TGI (LOX IMVI melanoma) [µM] | TGI (HT29 colon) [µM] | TGI (T-47D breast) [µM] | TGI (PC-3 prostate) [µM] | TGI (HS 578T breast) [µM] | TGI (MDA-N) [µM] | TGI (BT-549 breast) [µM]
O=S(=O)(c1ccccc1)N1N=C2c3ccccc3CCC[C@H]2C1c1ccccc1 (some centres undefined) | > 100 | > 100 | > 100 | > 100 | > 100 | > 100 | > 100 | > 100 | > 100 | > 100 | > 100 | > 100 | > 100 | > 100 | > 100 | – | – | – | – | –
Cn1c2c(c3ccccc31)CCN1C(=O)CN(C(=O)C3CCCCC3)CC21 (centres undefined) | > 100 | > 100 | – | > 100 | > 100 | > 100 | > 100 | – | > 100 | > 100 | > 100 | > 100 | > 100 | > 100 | > 100 | > 100 | > 100 | > 100 | > 100 | –
CC1CN=C(N(C(=O)Nc2ccc(Cl)c(Cl)c2)c2ccccc2)S1 (centres undefined) | > 100 | > 100 | > 100 | – | > 100 | > 100 | – | > 100 | > 100 | > 100 | > 100 | > 100 | > 100 | > 100 | > 100 | > 100 | > 100 | > 100 | > 100 | –
c1ccc2c(c1)SCCC2NC1=NCCO1 (centres undefined) | > 100 | > 100 | > 100 | > 100 | > 100 | – | > 100 | > 100 | > 100 | > 100 | > 100 | > 100 | > 100 | > 100 | > 100 | > 100 | > 100 | > 100 | > 100 | –
C=CCC1(CN(C)C)CC/C(=C\c2ccc(Cl)cc2)C1=O (centres undefined) | > 100 | 24 | > 100 | > 100 | > 100 | > 100 | > 100 | > 100 | 58.4 | > 83.8 | > 100 | > 100 | > 90.3 | 52 | 60.1 | – | – | – | – | –
CCCCC/C=C1\CCC(CN(C)C)C1=O (centres undefined) | 31.4 | 18.5 | 18.4 | 29.5 | 27.3 | 27.1 | 29.4 | – | 10 | 24.1 | > 63.5 | 30.1 | 32.3 | 20.6 | 62.3 | – | – | – | – | –
CCOC(=O)/C(=C/c1ccc(N(C)C)cc1)N(CC)CC | > 100 | 91.9 | > 100 | 94.2 | > 100 | > 100 | > 100 | – | > 100 | > 100 | > 100 | > 100 | – | 78.5 | – | – | – | – | – | –
C[N+](C)(C)CC1CCC/C1=N\OC(=O)c1ccccc1 (centres undefined) | > 100 | > 100 | – | > 100 | > 100 | – | > 100 | > 100 | > 100 | > 100 | > 100 | > 100 | > 100 | > 100 | > 100 | – | – | – | – | –
Cn1c2ccccc2c2ncc3[nH]c4ccccc4c3c21 | 26.9 | > 100 | 68.8 | 51.8 | 54.9 | 56.8 | 41.7 | 36.7 | 63.7 | 32.4 | 49.6 | 73.2 | 35.6 | 56.2 | 31.1 | – | – | – | – | –
Cn1cnnc1Sc1c([N+](=O)[O-])ncn1C | > 100 | > 100 | > 100 | > 100 | > 100 | 91.2 | > 100 | > 100 | – | > 100 | > 100 | > 100 | > 100 | > 100 | > 100 | – | – | – | – | –
C[C@]12CCC(=O)C=C1CC[C@@H]1C2CC[C@]2(C)Nc3[nH]ncc3CC12 (some centres undefined) | > 100 | > 100 | > 100 | > 100 | > 100 | – | > 100 | > 100 | > 100 | > 100 | > 100 | – | > 100 | – | > 100 | – | – | – | – | –
C=C(C)C1CCC2(C)CC1c1c(c(C)cc3c1[nH]c1ccccc13)O2 (centres undefined) | > 25 | > 25 | – | > 25 | > 25 | > 25 | > 25 | – | > 25 | > 25 | > 25 | > 25 | – | > 25 | > 25 | – | – | – | – | –
O=[N+]([O-])c1ccc(-c2cnc3ccccn23)cc1 | > 100 | > 100 | > 100 | > 100 | > 100 | – | > 100 | > 100 | > 100 | > 100 | > 100 | > 100 | 92 | > 100 | > 100 | – | – | – | – | –
O=c1c2ncn(C3CCCO3)c2n(-c2ccccc2)c(=S)n1-c1ccccc1 (centres undefined) | > 100 | > 100 | > 100 | > 100 | > 100 | – | > 100 | > 100 | > 100 | > 100 | > 100 | > 100 | > 100 | > 100 | > 100 | > 100 | > 100 | – | – | > 100
COC(=O)C(C(=O)Cc1ccccc1[N+](=O)[O-])C(=O)OC | > 100 | > 100 | > 100 | > 100 | > 100 | > 100 | > 100 | – | > 100 | > 100 | > 100 | > 100 | > 100 | > 100 | > 100 | – | – | – | – | –
